Reference: US6764829B2, “Nucleoside hydrolase and nucleoside phosphorylase detection kits, dipsticks and substrates” (Albert Einstein College of Medicine of Yeshiva University, priority 1996, dated 2004)
Read-outs that look alike come from different tables or passages of the source.

Columns and labels:
[1] = biological target: T1, IAG-nucleoside hydrolase (Trypanosoma brucei, UniProt Q57ZL6); test: Comparison of β-D-ribofuranoside substrates with IAG-nucleoside hydrolase (Table 3); type: biochemical; conditions: for IAG NH rate: at 200 μM substrate
T1 sequence (Q57ZL6 1-327): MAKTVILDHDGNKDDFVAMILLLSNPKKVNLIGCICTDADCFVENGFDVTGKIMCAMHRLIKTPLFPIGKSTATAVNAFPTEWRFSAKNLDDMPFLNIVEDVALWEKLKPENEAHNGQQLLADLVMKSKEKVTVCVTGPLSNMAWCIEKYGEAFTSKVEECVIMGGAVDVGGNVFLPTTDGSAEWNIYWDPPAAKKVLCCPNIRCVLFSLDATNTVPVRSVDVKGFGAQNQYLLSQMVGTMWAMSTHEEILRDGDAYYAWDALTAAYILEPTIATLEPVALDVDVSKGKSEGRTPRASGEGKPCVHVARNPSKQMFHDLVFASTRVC
Procedure: (§1) The enzymes used were highly purified samples from Crithidia fasciculata (IU-nucleoside hydrolase) and Trypanosoma brucei brucei (IAG-nucleoside hydrolase), available as stock solutions of approximately 20 mg protein/mL.
(§2) Each reaction was conducted in a quartz cuvette with a 1 cm path length, placed in the observation chamber of a UV spectrophotometer, and in a total reaction volume of 600 μL. The temperature was adjusted by use of a circulating water bath, set so that the cuvette temperature equilibrated to 30° C. in about 5 minutes.
(§3) The β-D-ribofuranoside substrates were dissolved in aqueous buffer: 50 mM CHES for reactions at pH 10, 50 mM HEPES for reactions at pH 8. […] For the remaining reactions catalysed by IAG hydrolase, a single substrate concentration of between 100 and 300 μM was used.
(§4) The absorbance of each reaction mixture was monitored at or near the absorption maximum for the phenolic aglycon (as shown in Table 3). Monitoring began 5-10 minutes before the enzyme was added to determine if the substrate was stable under the reaction conditions.
(§5) Data were fitted to the Michaelis-Menton equation using kaleidagraph, and the resulting kinetic parameters along with other relevant data are summarized in Table 3.

[2] = biological target: AMP nucleosidase (Escherichia coli, UniProt P0AE12); test: Kinetic parameters with nitrophenylriboside 5-phosphate and purine substrate (Table 1); type: biochemical, E coli
Text: (§6) In this Example kinetic parameters for different enzymes were compared using nitrophenylriboside or a purine substrate. […] The E. coli and bovine spleen enzymes tested were ineffective in hydrolysing the substrate. The striking ability of one of the protozoan parasite enzymes to hydrolyse the substrate provides the basis for an assay for the protozoan parasites (see Example 22).

[3] = biological target: T2, IU-nucleoside hydrolase (Crithidia fasciculata, UniProt Q27546); test: Comparison of β-D-ribofuranoside substrates with IU-nucleoside hydrolase (Table 3); type: biochemical; conditions: for Km: read-out: IU NH Km
T2 sequence (Q27546 1-315): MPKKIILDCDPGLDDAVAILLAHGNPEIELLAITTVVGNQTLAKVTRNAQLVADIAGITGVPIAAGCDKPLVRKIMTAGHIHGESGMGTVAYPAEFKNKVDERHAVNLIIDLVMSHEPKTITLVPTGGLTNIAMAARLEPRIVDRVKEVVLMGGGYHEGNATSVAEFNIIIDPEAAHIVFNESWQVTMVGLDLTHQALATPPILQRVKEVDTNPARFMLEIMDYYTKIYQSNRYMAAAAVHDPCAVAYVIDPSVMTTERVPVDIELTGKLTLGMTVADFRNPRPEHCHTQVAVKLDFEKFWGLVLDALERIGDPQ
Procedure: as §1, §2, §3, §4, §5

[4] = system: T. vaginalis; test: Hydrolysis of substrates by T. vaginalis extract; type: biochemical; conditions: Triton X-100 extract; determined as in Example 24
Procedure: T. vaginalis was grown for 2 days in TYM medium, harvested, and washed. […] The ability of the extract to hydrolyse substrates was determined as in Example 24. For 4-nitrophenyl β-D-ribofuranoside, the activity was 165 nmoles.min^−1 per 10^8 cells, corresponding to an activity for the enzyme of 9 nmoles.min^−1.(mg protein)^−1. For 4-pyridyl β-D-ribofuranoside, the activity was 74 nmoles.min^−1 per […] corresponding to an activity for the enzyme of 4 nmoles.min^−1.(mg protein)^−1.

[5] = system: Giardia intestinalis (Portland 1 strain); test: Hydrolysis of substrates by Giardia intestinalis supernatants; type: biochemical; conditions: 0.24 mM substrate, 50 mM HEPES pH 8
Procedure: Giardia intestinalis (Portland 1 strain) was grown for 2 days in TYI-33 medium supplemented with 5 mM arginine, harvested and washed. A suspension containing 2.91×10^8 cells of Giardia intestinalis in 1 mL of aqueous HEPES buffer (40 mM. pH 7) was mixed with 1 mL of aqueous HEPES buffer (40 mM, pH 7) containing 0.1 mM protease inhibitor E-64 and sonicated (Branson sonicator, duty cycle 40, output 2.5), for 2-3 min in ice. The suspension was then centrifuged in a Beckman microfuge for 10 mins at 4° C., and the supernatant decanted.
A second suspension of 2.91×10^8 cells of Giardia intestinalis in 1 mL of aqueous HEPES buffer (40 mM, pH 7) was mixed with 1 mL of 0.5% aqueous Triton X-100, left at 4° C. overnight, and the supernatant was decanted.
Aliquots (between 2 and 100 μL) of each of these supernatants were made up to a volume of 1 mL of water containing 50 mM HEPES buffer at pH 8, 0.24 mM 4-nitrophenyl β-D-ribofuranoside or 4-pyridyl β-D-ribofuranoside. The release of the aglycon was monitored by absorption spectrometry at 400 nm or 253 nm, respectively.
Protein was determined by Lowry method (ie Folin reaction).

[6] = substrate: O=[N+]([O-])c1ccc(O[C@@H]2O[C@H](CO)[C@@H](O)[C@H]2O)cc1; test: Comparison of β-D-ribofuranoside substrates with IAG-nucleoside hydrolase (Table 3); type: biochemical, Trypanosoma brucei brucei; conditions: other: At pH 10, 30.0 °C
Procedure: as §1, §2, §3, §4, §5

[7] = substrate: OC[C@H]1O[C@@H](Oc2ccncc2)[C@H](O)[C@@H]1O; test: as above; type: biochemical, Trypanosoma brucei brucei; conditions: other: At pH 10, 30.0 °C
Procedure: as §1, §2, §3, §4, §5

[8] = substrate: O=[N+]([O-])c1ccc(O[C@@H]2O[C@H](CO)[C@@H](O)[C@H]2O)cc1; test: Kinetic parameters with nitrophenylriboside and purine substrate (Table 1); type: biochemical, Trypanosoma brucei brucei; conditions: other: nitrophenylriboside as substrate, pH 8.0 in 50 mM HEPES, 30° C.
Text: as §6

[9] = substrate: O=[N+]([O-])c1ccc(O[C@@H]2O[C@H](CO)[C@@H](O)[C@H]2O)cc1; test: Kinetic parameters (phosphorolysis) with nitrophenylriboside and purine substrate (Table 1); type: biochemical, bovine; conditions: other: nitrophenylriboside as substrate, pH 8.0 in 50 mM HEPES, 30° C., 3 mM phosphate
Text: as §6

[10] = nitrophenylriboside 5-phosphate as substrate, pH 8.0 in 50 mM HEPES, 30° C., MgATP 100 μM

Chain of AMP nucleosidase (P0AE12 whole entry): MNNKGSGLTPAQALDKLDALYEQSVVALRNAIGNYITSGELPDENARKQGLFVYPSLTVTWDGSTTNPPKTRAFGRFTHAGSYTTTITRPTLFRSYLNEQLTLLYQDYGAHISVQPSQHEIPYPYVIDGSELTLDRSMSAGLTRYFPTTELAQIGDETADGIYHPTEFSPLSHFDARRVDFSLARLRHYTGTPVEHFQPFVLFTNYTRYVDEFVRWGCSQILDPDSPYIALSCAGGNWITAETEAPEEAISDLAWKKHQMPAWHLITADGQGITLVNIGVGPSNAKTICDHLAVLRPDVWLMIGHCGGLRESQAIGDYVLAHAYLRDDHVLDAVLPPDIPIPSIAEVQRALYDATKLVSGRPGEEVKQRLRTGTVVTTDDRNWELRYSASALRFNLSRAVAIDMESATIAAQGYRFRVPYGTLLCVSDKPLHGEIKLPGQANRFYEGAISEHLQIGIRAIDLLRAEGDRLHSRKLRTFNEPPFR

OC[C@H]1O[C@@H](Oc2cccc3ncccc23)[C@H](O)[C@@H]1O [Example 14, 5-quinolyl β-D-ribofuranoside]
IAG NH rate ([1]; pH 8.0): 0.16 min⁻¹ | IAG NH rate ([1]; pH 10.0): <0.01 min⁻¹

nitrophenylriboside 5-phosphate
kcat/Km ratio ([2]; kcat/Km for the nitrophenyl substrate to that for AMP): 3 × 10^−7 | Km [2, 10]: 6250 µM | kcat [2, 10]: 0.0004 s⁻¹

β-D-ribofuranoside of Luminol [Example 15]
IAG NH rate ([1]; pH 8.0): <0.01 min⁻¹ | IAG NH rate ([1]; pH 10.0): <0.03 min⁻¹ | IU NH kcat ([3]; At pH 10, 30° C.): 163 s⁻¹ | Km ([3]; At pH 10, 30° C.): 133 µM

Cc1cc(=O)oc2cc(O[C@@H]3O[C@H](CO)[C@@H](O)[C@H]3O)ccc12 [Example 10, 4-methylcoumarin-7-yl β-D-ribofuranoside]
IAG NH rate ([1]; pH 10.0): 0.003 min⁻¹ | substrate quality in words [3]: good substrates

O=C(Nc1cccc(O[C@@H]2O[C@H](CO)[C@@H](O)[C@H]2O)c1)C(F)(F)F [Example 3, 3-trifluoroacetamidophenyl β-D-ribofuranoside]
Ki [3]: 27.7 µM

O=C1CCCc2c(O[C@@H]3O[C@H](CO)[C@@H](O)[C@H]3O)cccc21 [Example 5, 1-tetralone-5-yl β-D-ribofuranoside]
IAG NH rate ([1]; pH 8.0): <0.01 min⁻¹ | IAG NH rate ([1]; pH 10.0): <0.01 min⁻¹ | IU NH kcat ([3]; At pH 10, at 200 μM): 0.5 s⁻¹

O=C1OC(c2ccc(O)cc2)(c2ccc(O[C@@H]3O[C@H](CO)[C@@H](O)[C@H]3O)cc2)c2ccccc21 (stereo partly drawn) [Example 7, 3-(4-hydroxyphenyl)-1(3H)-isobenzofuranone-3-(phen-4-yl) β-D-ribofuranoside]
IAG NH rate ([1]; pH 8.0): <0.01 min⁻¹ | IAG NH rate ([1]; pH 10.0): <0.01 min⁻¹ | IU NH kcat ([3]; At pH 10, at 200 μM): 10 at sec^−1

O=Cc1ccc(O[C@@H]2O[C@H](CO)[C@@H](O)[C@H]2O)cc1 [Example 20, 4-formylphenyl β-D-ribofuranoside]
IAG NH rate ([1]; pH 10.0): 0.01 min⁻¹

O=[N+]([O-])c1ccccc1O[C@@H]1O[C@H](CO)[C@@H](O)[C@H]1O [Example 9, 2-nitrophenyl β-D-ribofuranoside]
IAG NH rate ([1]; pH 10.0): 0.15 min⁻¹ | substrate quality in words [3]: good substrates

Nc1ccc(O[C@@H]2O[C@H](CO)[C@@H](O)[C@H]2O)cc1 [Example 6, p-aminophenyl β-D-ribofuranoside]
IU NH kcat ([3]; At pH 10, 30° C.): <0.01 s⁻¹

OC[C@H]1O[C@@H](Oc2ccncc2)[C@H](O)[C@@H]1O [Example 12, 4-pyridyl β-D-ribofuranoside]
activity for the enzyme [4]: 4 nmoles.min^−1.(mg protein)^−1 | activity per cells [4]: 74 nmoles.min^−1 per 10^−8 cells | activity per cells [5]: 210 nmoles.min^−1 per 10^8 cells | activity for the enzyme ([5]; protein by Lowry method): 31 nmoles.min^−1.(mg protein)^−1 | substrate quality in words [1]: good substrates | substrate quality in words ([1]; listed as 4-pyridyl riboside): substantially greater activity | substrate quality in words [3]: good substrates | substrate quality in words ([3]; listed as 4-pyridyl riboside): lower activity

Nc1cccc(O[C@@H]2O[C@H](CO)[C@@H](O)[C@H]2O)c1 [Example 4, 3-aminophenyl β-D-ribofuranoside]
IAG NH rate ([1]; pH 10.0): <0.02 min⁻¹ | Ki [3]: 72 µM | IU NH kcat ([3]; At pH 10, at 1240 μM): 0.7 s⁻¹

NC(=O)c1ccc(O[C@@H]2O[C@H](CO)[C@@H](O)[C@H]2O)nc1 [Example 19, 3-carboxamido-6-pyridyl β-D-ribofuranoside]
substrate quality in words [1]: good substrates | IAG NH rate ([1]; pH 8.0): >100 min⁻¹ | IAG NH rate ([1]; pH 10.0): 24 min⁻¹ | substrate quality in words [3]: good substrates | IU NH kcat ([3]; At pH 10, 30° C.): 141 s⁻¹ | Km ([3]; At pH 10, 30° C.): 369 µM

OC[C@H]1O[C@@H](Oc2cccc3ccccc23)[C@H](O)[C@@H]1O [Example 2, α-naphthyl β-D-ribofuranoside]
IAG NH rate ([1]; pH 10.0): <0.05 min⁻¹ | Ki [3]: 7.3 µM | IU NH kcat ([3]; At pH 10, at 250 μM): .009 s⁻¹

OC[C@H]1O[C@@H](Oc2cccnc2)[C@H](O)[C@@H]1O [Example 11, 3-pyridyl β-D-ribofuranoside]
IAG NH rate ([1]; pH 10.0): 0.01 min⁻¹

B1: IAG-nucleoside hydrolase (Trypanosoma brucei brucei TREU927) (protein)
chain: T1 sequence (Q57ZL6 1-327)
Km [6]: 529 µM | kcat [6]: 0.00317 s⁻¹ | Km [7]: 306 µM | kcat [7]: 12 s⁻¹ | Km [8]: 560 µM | kcat [8]: 0.82 s⁻¹ | kcat/Km [8]: 1500 M⁻¹ s⁻¹

B2: Purine nucleoside phosphorylase (Bos taurus) (protein)
chain: MANGYTYEDYQDTAKWLLSHTEQRPQVAVICGSGLGGLVNKLTQAQTFDYSEIPNFPESTVPGHAGRLVFGILNGRACVMMQGRFHMYEGYPFWKVTFPVRVFRLLGVETLVVTNAAGGLNPNFEVGDIMLIRDHINLPGFSGENPLRGPNEERFGVRFPAMSDAYDRDMRQKAHSTWKQMGEQRELQEGTYVMLGGPNFETVAECRLLRNLGADAVGMSTVPEVIVARHCGLRVFGFSLITNKVIMDYESQGKANHEEVLEAGKQAAQKLEQFVSLLMASIPVSGHTG
notes: The E. coli and bovine spleen enzymes tested; from tissue; host or cells: bovine spleen
Km [9]: 224 µM | kcat [9]: 0.0002 s⁻¹ | kcat/Km [9]: 0.89 M⁻¹ s⁻¹
